Converted amounts (≈) assume the structure as drawn.
Columns and labels:
Type in all cases: functional
[1] = tested on: Providencia stuartii; experiment: Antibacterial activity against Providencia stuartii obtained from complicated skin and skin structure infections by agar dilution method
[2] = tested on: Serratia marcescens; experiment: Antibacterial activity against Serratia marcescens obtained from complicated skin and skin structure infections by agar dilution method
[3] = tested on: Klebsiella pneumoniae; experiment: Antibacterial activity against Klebsiella pneumoniae obtained from complicated skin and skin structure infections by agar dilution method
[4] = tested on: Pseudomonas aeruginosa; experiment: Antibacterial activity against Pseudomonas aeruginosa obtained from complicated skin and skin structure infections by agar dilution method
[5] = tested on: Salmonella; experiment: Antibacterial activity against Salmonella spp. obtained from complicated skin and skin structure infections by agar dilution method
[6] = tested on: Klebsiella oxytoca; experiment: Antibacterial activity against Klebsiella oxytoca obtained from complicated skin and skin structure infections by agar dilution method
[7] = tested on: Morganella morganii; experiment: Antibacterial activity against Morganella morganii obtained from complicated skin and skin structure infections by agar dilution method
[8] = tested on: Pseudomonas fluorescens; experiment: Antibacterial activity against Pseudomonas fluorescens obtained from complicated skin and skin structure infections by agar dilution method
[9] = tested on: Enterobacter cloacae; experiment: Antibacterial activity against Enterobacter cloacae obtained from complicated skin and skin structure infections by agar dilution method
[10] = tested on: Acinetobacter baumannii; experiment: Antibacterial activity against Acinetobacter baumannii obtained from complicated skin and skin structure infections by agar dilution method
[11] = tested on: Citrobacter freundii; experiment: Antibacterial activity against Citrobacter freundii obtained from complicated skin and skin structure infections by agar dilution method
[12] = tested on: Citrobacter braakii; experiment: Antibacterial activity against Citrobacter braakii obtained from complicated skin and skin structure infections by agar dilution method
[13] = tested on: Proteus vulgaris; experiment: Antibacterial activity against Proteus vulgaris obtained from complicated skin and skin structure infections by agar dilution method
[14] = tested on: Klebsiella aerogenes; experiment: Antibacterial activity against Enterobacter aerogenes obtained from complicated skin and skin structure infections by agar dilution method
[15] = tested on: Proteus penneri; experiment: Antibacterial activity against Proteus penneri obtained from complicated skin and skin structure infections by agar dilution method
[16] = tested on: Escherichia coli; experiment: Antibacterial activity against Escherichia coli obtained from complicated skin and skin structure infections by agar dilution method
[17] = tested on: Proteus mirabilis; experiment: Antibacterial activity against Proteus mirabilis obtained from complicated skin and skin structure infections by agar dilution method
[18] = tested on: Stenotrophomonas maltophilia; experiment: Antibacterial activity against Stenotrophomonas maltophilia obtained from complicated skin and skin structure infections by agar dilution method
[19] = tested on: Enterobacter amnigenus; experiment: Antibacterial activity against Enterobacter amnigenus obtained from complicated skin and skin structure infections by agar dilution method; conditions: Lelliottia amnigena

SMILES	MIC50 [1] [µg/mL]	MIC90 [1] [µg/mL]	MIC50 [2] [µg/mL]	MIC90 [2] [µg/mL]	MIC50 [3] [µg/mL]	MIC90 [3] [µg/mL]	MIC50 [4] [µg/mL]	MIC90 [4] [µg/mL]	MIC50 [5] [µg/mL]	MIC90 [5] [µg/mL]	MIC50 [6] [µg/mL]	MIC90 [6] [µg/mL]	MIC50 [7] [µg/mL]	MIC90 [7] [µg/mL]	MIC50 [8] [µg/mL]	MIC90 [8] [µg/mL]	MIC50 [9] [µg/mL]	MIC90 [9] [µg/mL]	MIC50 [10] [µg/mL]	MIC90 [10] [µg/mL]	further results
C[C@@H](O)[C@H]1C(=O)N2C(C(=O)O)=C(S[C@@H]3CN[C@H](C(=O)N(C)C)C3)[C@H](C)[C@H]12 [MEROPENEM]	0.03 (≈ 0.0782 µM)	≤ 0.12	0.03 (≈ 0.0782 µM)	≤ 0.12	0.03 (≈ 0.0782 µM)	≤ 0.12	4 (≈ 10.4 µM)	8 (≈ 20.9 µM)	0.03 (≈ 0.0782 µM)	≤ 0.12	0.03 (≈ 0.0782 µM)	≤ 0.12	≤ 0.12	0.12 (≈ 0.313 µM)	2 (≈ 5.22 µM)	> 32	0.03 (≈ 0.0782 µM)	≤ 0.12	2 (≈ 5.22 µM)	> 32	MIC50 [11]: 0.03 µg/mL (≈ 0.0782 µM); MIC90 [11]: ≤ 0.12 µg/mL; MIC50 [12]: 0.03 µg/mL (≈ 0.0782 µM); MIC90 [12]: ≤ 0.12 µg/mL; MIC50 [13]: 0.03 µg/mL (≈ 0.0782 µM); MIC90 [13]: ≤ 0.12 µg/mL; MIC50 [14]: 0.03 µg/mL (≈ 0.0782 µM); MIC90 [14]: ≤ 0.12 µg/mL; MIC50 [15]: 0.03 µg/mL (≈ 0.0782 µM); MIC90 [15]: ≤ 0.12 µg/mL; MIC [16]: 0.015 µg/mL (≈ 0.0391 µM); MIC50 [16]: 0.015 µg/mL (≈ 0.0391 µM); MIC90 [16]: ≤ 0.12 µg/mL; MIC50 [17]: 0.06 µg/mL (≈ 0.156 µM); MIC90 [17]: ≤ 0.12 µg/mL; MIC50 [18]: 2 µg/mL (≈ 5.22 µM); MIC90 [18]: > 32 µg/mL; MIC50 [19]: 0.03 µg/mL (≈ 0.0782 µM); MIC90 [19]: ≤ 0.12 µg/mL
NCC[C@H](O)C(=O)N[C@@H]1C[C@H](N)[C@@H](O[C@H]2O[C@H](CN)[C@@H](O)[C@H](O)[C@H]2O)[C@H](O)[C@H]1O[C@H]1O[C@H](CO)[C@@H](O)[C@H](N)[C@H]1O [AMIKACIN]	2 (≈ 3.42 µM)	8 (≈ 13.7 µM)	2 (≈ 3.42 µM)	8 (≈ 13.7 µM)	1 (≈ 1.71 µM)	64 (≈ 109 µM)	8 (≈ 13.7 µM)	64 (≈ 109 µM)	2 (≈ 3.42 µM)	8 (≈ 13.7 µM)	2 (≈ 3.42 µM)	8 (≈ 13.7 µM)	2 (≈ 3.42 µM)	4 (≈ 6.83 µM)	16 (≈ 27.3 µM)	> 128	2 (≈ 3.42 µM)	8 (≈ 13.7 µM)	16 (≈ 27.3 µM)	> 128	MIC [3]: 1 µg/mL (≈ 1.71 µM); MIC50 [11]: 2 µg/mL (≈ 3.42 µM); MIC90 [11]: 8 µg/mL (≈ 13.7 µM); MIC50 [12]: 2 µg/mL (≈ 3.42 µM); MIC90 [12]: 8 µg/mL (≈ 13.7 µM); MIC50 [13]: 2 µg/mL (≈ 3.42 µM); MIC90 [13]: 8 µg/mL (≈ 13.7 µM); MIC50 [14]: 2 µg/mL (≈ 3.42 µM); MIC90 [14]: 8 µg/mL (≈ 13.7 µM); MIC50 [15]: 2 µg/mL (≈ 3.42 µM); MIC90 [15]: 8 µg/mL (≈ 13.7 µM); MIC50 [16]: 2 µg/mL (≈ 3.42 µM); MIC90 [16]: 4 µg/mL (≈ 6.83 µM); MIC50 [17]: 4 µg/mL (≈ 6.83 µM); MIC90 [17]: 16 µg/mL (≈ 27.3 µM); MIC50 [18]: 16 µg/mL (≈ 27.3 µM); MIC90 [18]: > 128 µg/mL; MIC50 [19]: 2 µg/mL (≈ 3.42 µM); MIC90 [19]: 8 µg/mL (≈ 13.7 µM)

Reference: ChEMBL document CHEMBL1275492, “In vitro activity of ceftobiprole against pathogens from two phase 3 clinical trials of complicated skin and skin structure infections” (2008)
